Strand notation (5' to 3'): a small letter for the sugar, then the base; units joined by * are phosphorothioate-linked, units joined directly phosphodiester-linked; [ ] holds rarer units or linkages, { } end groups; capitals alone tell only the bases. d = 2'-deoxy (DNA)
Legend:
ICAM-1 [1] = experiment: ELISA of ICAM-1 cell surface expression in oligonucleotide-pretreated, cytokine-stimulated HUVEC; format: cell-based, human; details: HUVEC, interleukin-1β; concentration not given
[2] = tested on: adherence of HL-60 cells to human umbilical vein endothelial cells; experiment: Cell adherence assay: DMSO differentiated HL-60 cells to TNF treated HUVEC; format: cell-based; details: TNF-α stimulated HUVEC, Example 11; control 19%
Experimental: Target cells are grown as a monolayer in a multiwell plate, treated with oligonucleotide followed by cytokine. The adhering cells are then added to the monolayer cells and incubated for 30 to 60 minutes at 37° C. and washed to remove nonadhering cells. Cells adhering to the monolayer may be determined either by directly counting the adhering cells or prelabeling the cells with a radioisotope such as ^51Cr and quantitating the radioactivity associated with the monolayer as described. Dustin and Springer, J. Cell Biol. 1988, 107, 321-331. Antisense oligonucleotides may target either ICAM-1, VCAM-1 or ELAM-1 in the assay.
An example of the effects of antisense oligonucleotides targeting ICAM-1 mRNA on the adherence of DMSO differentiated HL-60 cells to tumor necrosis factor treated human umbilical vein endothelial cells is shown in FIG. 7. Human umbilical vein endothelial cells were grown to 80% confluence in 12 well plates. The cells were treated with 2 μM oligonucleotide diluted in Opti-MEM containing 8 μM DOTMA for 4 hours at 37° C. The medium was removed and replaced with fresh endothelial cell growth medium (EGM-UV) containing 2 μM of the indicated oligonucleotide and incubated 4 hours at 37° C. Tumor necrosis factor, 1 ng/ml, was added to cells as indicated and cells incubated for an additional 19 hours. The cells were washed once with EGM-UV and 1.6×10^6 HL-60 cells differentiated for 4 days with 1.3% DMSO added. The cells were allowed to attach for 1 hour at 37° C. and gently washed 4 times with Dulbecco's phosphate-buffered saline (D-PBS) warmed to 37° C. Adherent cells were detached from the monolayer by addition of 0.25 ml of cold (4EC) phosphate-buffered saline containing 5 mM EDTA and incubated on ice for 5 minutes. The number of cells removed by treatment with EDTA was determined by counting with a hemocytometer. Endothelial cells detached from the monolayer by EDTA treatment could easily be distinguished from HL-60 cells by morphological differences. In the absence of tumor necrosis factor, 3% of the HL-60 cells bound to the endothelial cells. Treatment of the endothelial cell monolayer with 1 ng/ml tumor necrosis factor increased the number of adhering cells to 59% of total cells added (FIG. 7).
Human umbilical vein endothelial (HUVEC) cells were grown and treated with oligonucleotides as in Example 4. Cells were treated with either ISIS 1939, ISIS 1940, or the control oligonucleotide ISIS 1821 for 4 hours, then stimulated with TNF-α for 20 hours. Basal HUVEC minimally bound HL-60 cells, while TNF-stimulated HUVEC bound 19% of the total cells added. Pretreatment of the HUVEC monolayer with 0.3 ìM ISIS 1939 reduced the adherence of HL-60 cells to basal levels, as shown in FIG. 11.

ICAM-1 [3] = experiment: ELISA screening for ICAM-1 expression in interleukin-1β-stimulated cells (HUVEC and A549); format: cell-based, human; details: interleukin-1β-stimulated cells, two cell lines (HUVEC, A549)
[4] = tested on: complementary DNA sequences (ICAM-1 target sites); experiment: Tm of oligonucleotide hybridized to complementary DNA; format: binding, human; details: 4 μM each strand, 100 mM Na+, 10 mM phosphate, 0.1 mM EDTA, pH 7.0; phosphorothioate vs complementary phosphodiester DNA
Source text: The antisense oligonucleotides (synthesized as phosphorothioates) were hybridized to their complementary DNA sequences (synthesized as phosphodiesters). […] Tm's and free energies of duplex formation were obtained from fits of data to a two-state model with linear sloping baselines ([…]. and D. H. […] Results are averages of at least three experiments.

ICAM-1 [5] = experiment: Immunoprecipitation of 35S-labelled ICAM-1 from A549 cells; format: cell-based, human; details: 1 μM oligonucleotide, interleukin-1β
Experimental: The specificity of the antisense oligonucleotides ISIS 1570 and ISIS 1939 for ICAM-1 was evaluated by immunoprecipitation of ^35S-labelled proteins. A549 cells were grown to confluence in 25 cm^2 tissue culture flasks and treated with antisense oligonucleotides as described in Example 4. The cells were stimulated with interleukin-1β for 14 hours, washed with methionine-free DMEM plus 10% dialyzed fetal calf serum, and incubated for 1 hour in methionine-free medium containing 10% dialyzed fetal calf serum, 1 μM oligonucleotide and interleukin-1β as indicated. ^35S-Methionine/cysteine mixture (Tran^35S-label, purchased from ICN, Costa Mesa, Calif.) was added to the cells to an activity of 100 μCi/ml and the cells were incubated an additional 2 hours. Cellular proteins were extracted by incubation with 50 mM Tris-HCl pH 8.0, 150 mM NaCl, 1.0% NP-40, 0.5% deoxycholate and 2 mM EDTA (0.5 ml per well) at 4° C. for 30 minutes. The extracts were clarified by centrifugation at 18,000×g for 20 minutes. The supernatants were preadsorbed with 200 μl protein G-Sepharose beads (Bethesda Research Labs, Bethesda Md.) for 2 hours at 4° C., divided equally and incubated with either 5 μg ICAM-1 monoclonal antibody (purchased from AMAC Inc., Westbrook Me.) or HLA-A, B antibody (W6/32, produced by murine hybridoma cells obtained from the American Type Culture Collection, Bethesda, Md.) for 15 hours at 4° C. Immune complexes were trapped by incubation with 200 μl of a 50% suspension of protein G-Sepharose (v/v) for 2 hours at 4° C., washed 5 times with lysis buffer and resolved on an SDS-polyacrylamide gel. Proteins were detected by autoradiography.

[6] = tested on: corneal allograft rejection; experiment: Rat corneal allograft rejection (ACI donor to Lewis recipient); format: in vivo

ISIS 1558: P=O oligonucleotide, human ICAM-1 AUG Codon (64-81), SEQ ID NO 1, TGGGAGCCATAGCGAGGC (unmodified DNA)
inhibition of ICAM-1 expression (ICAM-1 [1]): did not inhibit expression of ICAM-1

ISIS 1940: P=S, human ICAM-1 3′-Untranslated (2975-2994), polyadenylation signal, SEQ ID NO 16, TTGAGAAAGCTTTATTAACT (antisense dT*dT*dG*dA*dG*dA*dA*dA*dG*dC*dT*dT*dT*dA*dT*dT*dA*dA*dC*dT)
percentage of HL-60 cells adhering [2]: 9%
inhibition of ICAM-1 expression, relative activity in words (ICAM-1 [3]): did not inhibit ICAM-1 expression
Tm [4]: < 50 °C
ICAM-1 synthesis (ICAM-1 [5]): did not significantly reduce ICAM-1 synthesis

ISIS 9125: rat ICAM-1 antisense, AGGGCCACTGCTCGTCCACA, all 2′-deoxyphosphorothioate (SEQ ID NO: 86) (antisense dA*dG*dG*dG*dC*dC*dA*dC*dT*dG*dC*dT*dC*dG*dT*dC*dC*dA*dC*dA)
corneal edema vs OPTISOL alone group ([6]; day 3 post-surgery): more corneal edema
grading for cornea opacity and neovascularization, better than OPTISOL alone group ([6]; day 3 post-surgery): 50%
average days to rejection ([6]; donor corneas incubated 24 hours in OPTISOL plus 400 μg/ml oligonucleotide, OPTISOL alone 4.80 days): 6.33 days
range of days to rejection ([6]; donor corneas incubated 24 hours in OPTISOL plus oligonucleotide): 6 to 10 days
increase of days to rejection ([6]; over the 24 hour OPTISOL incubation control group): 25%

Source: patent US6849612B2, “Oligonucleotide modulation of cell adhesion” (ISIS Pharmaceuticals, Inc., priority 1993, dated 2005)
